Data: US20200281194A1, “A Novel Green Micro-Emulsion for Controlling Fungal Wilt Diseases” (priority 2017, published 2020)

Test system: FoL (Fusarium wilt of tomato)
Test: Wilt incidence pot study in tomato (AUDPC)
Type: in vivo, Fusarium oxysporum
Settings: @ 0.1%
Description: For wilt incidence study, seeds, seedlings and soil are treated with above mentioned three concentrations of microemulsion formulation. In brief, soil is autoclaved and artificially inoculated with Fusarium spores (@ 2.6×10^5 spores/g soil). Seeds are treated with microemulsion formulations by the method used for germination study, but herein, seeds are sowed directly into 1 kg diseased pot. For seedling treatment, healthy eight-leaf staged seedlings of tomato are treated with three respective concentrations of microemulsion while in case of soil treatment; soil of pot is treated @ 5 ml per 150 cc soil. Healthy and untreated seedlings are taken as control. Each treatment has 5 replicates and all the pots are kept in the net house in Micro model, IITD for 45 days. Carbendazim (@0.1%) is taken as chemical control. For accessing the disease progression in the tomato plant, following grading system is used. Symptoms like yellowing of leaves, wilting of plant, height and weight of plant are examined and given a grade by comparing with the control having maximum diseases infection.
Area under the disease progress curve (AUDPC) is a method to calculate the percentage inhibition of wilt disease and is calculated as:
AUDPC=Σ[(Ri+1+Ri)/2][ti+1−ti], R=disease rating at the ith observation ti=time (days) since previous ratings at the ith observation, n=total number of observations.

Structure (SMILES): COC(=O)Nc1nc2ccccc2[nH]1 [carbendazim, Carbendazim]
- Disease reduction % of FoL (Seedling treatment): 60.02%
- Disease reduction % of FoL (Soil treatment): 71.24%
